For 22 molecules, IC50 and melting point results are on record in patent publication US20100249123A1, “NOVEL BENZAMIDE DERIVATIVES AS MODULATORS OF THE FOLLICLE STIMULATING HORMONE” (ADDEX PHARMA SA, priority 2007, published 2010).

Structures are written as SMILES. pIC50: −log10 of the molar value.

Data set [1] deals with T1, rat follicle stimulating hormone receptor (rFSHR) (Rattus norvegicus, UniProt P20395).
T1 construct: expressed in transfected cells
T1 sequence (P20395 18-692): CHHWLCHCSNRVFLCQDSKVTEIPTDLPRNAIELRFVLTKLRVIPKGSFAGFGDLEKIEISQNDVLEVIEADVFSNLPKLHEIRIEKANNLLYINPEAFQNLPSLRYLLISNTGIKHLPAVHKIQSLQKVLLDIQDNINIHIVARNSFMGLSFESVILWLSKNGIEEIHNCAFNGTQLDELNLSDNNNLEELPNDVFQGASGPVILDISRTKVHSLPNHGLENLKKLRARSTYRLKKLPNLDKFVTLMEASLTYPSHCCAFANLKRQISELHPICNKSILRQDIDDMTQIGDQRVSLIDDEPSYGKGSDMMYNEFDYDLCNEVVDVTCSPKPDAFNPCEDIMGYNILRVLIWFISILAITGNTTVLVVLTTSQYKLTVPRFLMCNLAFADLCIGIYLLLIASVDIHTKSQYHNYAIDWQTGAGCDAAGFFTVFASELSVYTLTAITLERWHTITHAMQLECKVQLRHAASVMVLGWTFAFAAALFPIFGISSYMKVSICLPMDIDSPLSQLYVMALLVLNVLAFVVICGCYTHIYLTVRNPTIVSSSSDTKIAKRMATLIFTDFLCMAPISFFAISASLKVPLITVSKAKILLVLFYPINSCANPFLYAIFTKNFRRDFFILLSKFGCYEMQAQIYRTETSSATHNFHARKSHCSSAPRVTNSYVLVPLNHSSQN
The data set is described as follows: Intracellular cAMP measurement (HTRF) assay, antagonism of EC70 of hFSH. In kind it is cell-based. As to conditions: HEK293 cells expressing rFSHR, 1 ng/ml hFSH (EC70), read-out: Class (IC50 to antagonise an EC70 of FSH receptors agonist such as hFSH). The text has this: Intracellular cAMP Measurement Assay
The Intracellular cAMP measurement assay is a functional cell-based assay used to study GPCR function. This method relies on a Time-Resolved Fluorescence (HTRF) assay to measure the cAMP accumulation upon receptor-mediated Gs protein activation in cells expressing recombinant GPCR or in cells from native tissues. In brief, this method is a competitive immunoassay between native cAMP produced by cells and the cAMP labeled with a fluorescent tag. The endogenously produced cAMP competes with exogenous added d2-labelled cAMP for the cAMP binding site on a Eu3+ cryptate labelled anti-cAMP antibody. The d2-labelled cAMP and the Eu^3+ labelled antibody produces a basal fluroresence via HTRF and therefore an intracellular increase in unlabelled cAMP is detected as decrease in this signal. cAMP is one of the most important intracellular mediators. Its concentration in cells can be increased upon binding of many hormones to their receptors. The most studied pathway consists in the release of α-subunit GTP-binding proteins following ligand-receptor interaction, which in turn activates or inhibits the ATP/cAMP conversion function of adenylate cyclase enzyme. cAMP is then involved in many complex regulatory processes such as protein kinase activation or ion channel gating. This method is widely used to study receptor activation of G protein in cells over-expressing GPCRs or in native cells, including FSH receptors expressing cells (Gabriel et al., Assay Drug Dev. Technol., 1, 291-303, 2003).
Transfection and cell culture: The cDNA encoding the rat follicle stimulating hormone receptor (rFSHR), (accession number NM_199237, NCBI Nucleotide database browser) was subcloned into an expression vector containing also the hygromycin resistance gene. Transfection of this vector into HEK293 cells with PolyFect reagent (Qiagen) according to supplier's protocol, and hygromycin treatment allowed selection of antibiotic resistant cells which had integrated stably one or more copies of the plasmid. Positive cellular clones expressing rFSHR were identified in a functional assay measuring cAMP production in cells following stimulation by addition of purified human follicle stimulating hormone (hFSH).
HTRF cAMP assay: On the day of the experiment, cells were detached from the Petri dish and distributed in a low volume, black-walled 384-well plate at a density of 5,000 cells/well in an assay buffer containing 1 mM IBMX to prevent cAMP degradation by cytoplasmic phosphodiesterases. The determination of the cAMP accumulation was performed using an HTRF assay (Trinquet et al., Anal. Biochem., 358, 126-135, 2006). Briefly, cells were incubated for 3 min in the presence of increasing concentrations of negative allosteric modulators (from 1 nM to 60 μM) and then 30 min in the presence of 1 ng/ml of hFSH, an agonist of rat FSH receptor, that has been determined in previous experiments to correspond to the EC70, a concentration that gives 70% of the maximal response of the agonist, and is in accordance with published data (Fox et al., Mol. Endocrin., 15, 378-389, 2001). […] Cells were then lysed by adding the HTRF assay components, the europium cryptate-labeled anti-cAMP antibody, and the XL665-labeled cAMP analog, previously diluted in a HEPES buffer (50 mM, pH 7.0) containing 0.8 M potassium fluoride, 0.2% (w/v) BSA, and 1% (v/v) Triton X-100, a percentage of detergent that ensure complete cell lysis. Assay was then incubated for 1 hr at room temperature, and HTRF signal was measured after excitation at 337 nm, and dual emission at 620 and 665 nm, using a RubyStar fluorimeter (BMG Labtechnologies). Moreover, the fluorescence ratio of an appropriate range of known concentrations of cAMP standards was also included on each assay plate to produce a standard cAMP curve. […]
(In general: In TR-FRET formats the signal depends on donor and acceptor labels being close together.)

For `CCc1cc(NC(=O)c2ccc(OC)c(OC)c2)ccc1C(C)(C)CNC(C)=O` [Example 200, N-[4-(2-Acetylamino-1,1-dimethyl-ethyl)-3-ethyl-phenyl]-3,4-dimethoxy-benzamide], the melting point (as a rule, the temperature, or range, at which the solid turns liquid) was in the range of 203 to 206 °C. Moreover, the negative-log IC50 (pIC50) (commonly the negative decadic logarithm of the IC50, by convention in mol/L) in data set [1] was greater than 6.82. In the same order, the values of `COc1ccc(C(=O)Nc2ccc(C(C)(C)CNC(=O)c3cc4ccccc4n3C)cc2)cc1OC` [Example 108] are 176 to 178 °C and 6.00 to 6.40. In the same order, the values of `COc1ccc(C(=O)Nc2ccc(C(C)(C)CNC(=O)c3ccsc3)cc2)cc1OC` [Example 72] are 189 to 190 °C and 6.40 to 6.82. The matching figures for `COc1ccc(C(=O)Nc2ccc(C(C)(C)CNC(=O)c3n[nH]c4ccccc34)cc2)cc1OC` [Example 87]: 214 to 216 °C and 6.40 to 6.82. Molecule `COc1ccc(C(=O)Nc2ccc(C(C)(C)CNC(=O)CCc3ccccc3)cc2)cc1OC` [Example 34] displayed a melting point of 149 to 151 °C. The pIC50 in data set [1] is 6.40 to 6.82.

The molecule `COc1ccc(C(=O)Nc2ccc(C(C)(C)CNC(=O)c3ccc4nccn4c3)cc2)cc1OC` [Example 190] returned a melting point of 194 to 196 °C. For the same molecule, the pIC50 in data set [1] is no more than 6.00. The matching figures for `COc1ccc(C(=O)Nc2ccc(C(C)(C)CNC(=O)c3nc4ccc(F)cc4[nH]3)cc2)cc1OC` [Example 193, 6-Fluoro-1H-benzoimidazole-2-carboxylic acid {2-[4-(3,4-dimethoxy-benzoylamino)-phenyl]-2-methyl-propyl}-amide]: 222 to 224 °C and greater than 6.82. Regarding `N#CC1(c2ccc(NC(=O)c3ccc4c(c3)OCCO4)cc2)CCCC1` [Example 3, 2,3-Dihydro-benzo[1,4]dioxin-6-carboxylic acid [4-(1-cyano-cyclopentyl)-phenyl]-amide], the melting point is 164 to 167 °C.

For the molecule `COc1ccc(C(=O)Nc2ccc(C(C)(C)CNC(=O)Cc3c[nH]c4ccccc34)cc2)cc1OC` [Example 126], the melting point lay within 94 to 96 °C. The pIC50 in data set [1] was 6.40 to 6.82. Consider `COc1ccc(C(=O)Nc2ccc(C(C)(C)CNC(=O)c3nc4ccccc4[nH]3)cc2)cc1OC` [Example 162, 1H-Benzoimidazole-2-carboxylic acid {2-[4-(3,4-dimethoxy-benzoylamino)-phenyl]-2-methyl-propyl}-amide], for which the melting point fell in the range of 223 to 226 °C. Same read-out and setting: for `COc1ccc(C(=O)Nc2ccc(C3(CNC(=O)c4cscn4)CCCC3)cc2)cc1OC` [Example 29, Thiazole-4-carboxylic acid {1-[4-(3,4-dimethoxy-benzoylamino)-phenyl]-cyclopentylmethyl}-amide] the value was 101 to 104 °C; for `COc1ccc(C(=O)Nc2ccc(C(C)(C)C(N)=O)cc2)cc1OC` [Example 21, N-[4-(1-Carbamoyl-1-methyl-ethyl)-phenyl]-3,4-dimethoxy-benzamide], 193 to 195 °C; for `COc1ccc(C(=O)Nc2ccc(C(C)(C)C#N)cc2)c(Cl)c1OC` [Example 153, 2-Chloro-N-[4-(cyano-dimethyl-methyl)-phenyl]-3,4-dimethoxy-benzamide], 195 to 198 °C. Same read-out and setting: for `COc1ccc(C(=O)Nc2ccc(C(C)(C)C#N)c(-c3ccncc3)c2)cc1OC` [Example 158, N-[4-(Cyano-dimethyl-methyl)-3-pyridin-4-yl-phenyl]-3,4-dimethoxy-benzamide] the value was 196 to 199 °C. In the case of `COc1ccc(C(=O)Nc2ccc(C(C)(C)CNC(=O)c3csc4ccccc34)cc2)cc1OC` [Example 116], the melting point was 145 to 147 °C. Further, the negative logarithm of the IC50 (pIC50) in data set [1] was greater than 6.82.

In the case of `COc1ccc(C(=O)Nc2ccc(C(C)(C)CNC(C)=O)c(-c3cccnc3)c2)cc1OC` [Example 195, N-[4-(2-Acetylamino-1,1-dimethyl-ethyl)-3-pyridin-3-yl-phenyl]-3,4-dimethoxy-benzamide], the melting point is 234 to 237 °C. For the same molecule, the negative-log IC50 (pIC50) in data set [1] is no more than 6.00.

For `COc1ccc(C(=O)Nc2ccc(C3(CNC(=O)C(C)(C)C)CCCC3)cc2)cc1OC` [Example 23, N-(4-{1-[(2,2-Dimethyl-propionylamino)-methyl]-cyclopentyl}-phenyl)-3,4-dimethoxy-benzamide], the melting point fell in the range of 165 to 167 °C.

`COc1ccc(C(=O)Nc2cccc(C3(C#N)CCCC3)c2)cc1OC` [Example 14, N-[3-(1-Cyano-cyclopentyl)-phenyl]-3,4-dimethoxy-benzamide] showed a melting point of 59 to 61 °C. The molecule `COc1ccc(C(=O)Nc2ccc(C3(C#N)CC3)cc2)cc1OC` [Example 2, N-[4-(1-Cyano-cyclopropyl)-phenyl]-3,4-dimethoxy-benzamide] registered a melting point of 204 to 207 °C. The same measure, in the same setting: with `COc1ccc(C(=O)Nc2ccc(C(C)(C)C#N)c(-c3cccc(Cl)c3)c2)cc1OC` [Example 157, N-[3′-Chloro-6-(cyano-dimethyl-methyl)-biphenyl-3-yl]-3,4-dimethoxy-benzamide] the figure was 144 to 146 °C. For `COc1ccc(C(=O)Nc2ccc(C(C)(C)C#N)c(-c3cncnc3)c2)cc1OC` [Example 184, N-[4-(Cyano-dimethyl-methyl)-3-pyrimidin-5-yl-phenyl]-3,4-dimethoxy-benzamide], the melting point lay in the range of 198 to 200 °C. Besides, in data set [1], the pIC50 is no more than 6.00. With `COC(=O)NCC(C)(C)c1ccc(NC(=O)c2ccc(OC)c(OC)c2)cc1` [Example 52, {2-[4-(3,4-Dimethoxy-benzoylamino)-phenyl]-2-methyl-propyl}-carbamic acid methyl ester], the melting point fell in the range of 67 to 69 °C.
